Results reported in PubChem BioAssay AID248 (DTP/NCI, 2004).
Where “and” joins values, the source holds several entries; their conditions need not be identical. Identical values can stand only once. Toxic doses and inconclusive results are not listed. Cut-off read from the data, not from the text of the source: active = T/C of 150% or more; inactive = T/C below 125%.

Tested on: L1210 leukemia ip in BDF1 mice, survival T/C
Assay: NCI In Vivo Anticancer Drug Screen. Data for tumor model L1210 Leukemia (intraperitoneal) in B6D2F1 (BDF1) mice
Conditions: endpoint: mean survival time, higher = longer survival
Outline: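 Value reflects the ratio of survival in compound-treated mice to survival in vehicle-treated controls, with both groups carrying the same transplanted tumor.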

[1] = dose: 5.0 mg/kg/injection, schedule: Q01DX001 (ip), vehicle: saline
[2] = dose: 10.0 mg/kg/injection, schedule: Q01DX001 (ip), vehicle: saline
[3] = dose: 20.0 mg/kg/injection, schedule: Q01DX001 (ip), vehicle: saline
[4] = dose: 50.0 mg/kg/injection, schedule: Q01DX001 (ip), vehicle: saline
[5] = dose: 100.0 mg/kg/injection, schedule: Q01DX001 (ip), vehicle: saline
[6] = dose: 200.0 mg/kg/injection, schedule: Q01DX001 (ip), vehicle: saline
[7] = dose: 400.0 mg/kg/injection, schedule: Q01DX001 (ip), vehicle: saline
[8] = dose: 100.0 mg/kg/injection, schedule: Q01DX009 (ip), vehicle: saline with Tween-80
[9] = dose: 100.0 mg/kg/injection, schedule: Q04DX003 (ip), vehicle: saline with Tween-80
[10] = dose: 200.0 mg/kg/injection, schedule: Q01DX009 (ip), vehicle: saline with Tween-80
[11] = dose: 200.0 mg/kg/injection, schedule: Q04DX003 (ip), vehicle: saline with Tween-80
[12] = dose: 400.0 mg/kg/injection, schedule: Q01DX009 (ip), vehicle: saline with Tween-80
[13] = dose: 400.0 mg/kg/injection, schedule: Q04DX003 (ip), vehicle: saline with Tween-80
[14] = dose: 100.0 mg/kg/injection, schedule: Q01DX009 (ip), vehicle: saline
[15] = dose: 100.0 mg/kg/injection, schedule: Q04DX003 (ip), vehicle: saline
[16] = dose: 200.0 mg/kg/injection, schedule: Q01DX009 (ip), vehicle: saline
[17] = dose: 200.0 mg/kg/injection, schedule: Q04DX003 (ip), vehicle: saline
[18] = dose: 400.0 mg/kg/injection, schedule: Q01DX009 (ip), vehicle: saline
[19] = dose: 400.0 mg/kg/injection, schedule: Q04DX003 (ip), vehicle: saline
[20] = dose: 50.0 mg/kg/injection, schedule: Q01DX009 (ip), vehicle: saline with Tween-80
[21] = dose: 25.0 mg/kg/injection, schedule: Q01DX009 (ip), vehicle: saline with Tween-80

Measured: T/C

COc1ccc(Cl)cc1N=Cc1cccc([N+](=O)[O-])c1
inactive: dose: 100.0 mg/kg/injection, schedule: Q01DX009 (ip), vehicle: Klucel (hydroxypropylcellulose) (HPC) 102 % of control | dose: 200.0 mg/kg/injection, schedule: Q01DX009 (ip), vehicle: Klucel (hydroxypropylcellulose) (HPC) 94 % of control | dose: 400.0 mg/kg/injection, schedule: Q01DX009 (ip), vehicle: Klucel (hydroxypropylcellulose) (HPC) 94 % of control

COc1ccc(C(C)=O)cc1
inactive: dose: 100.0 mg/kg/injection, schedule: Q04DX002 (ip), vehicle: saline + alcohol 92 % of control | dose: 200.0 mg/kg/injection, schedule: Q04DX002 (ip), vehicle: saline + alcohol 96 % of control | dose: 400.0 mg/kg/injection, schedule: Q04DX002 (ip), vehicle: saline + alcohol 92 % of control

CN=C(N)NCCCCCCCCNC(N)=NC
inactive: [1] 95 % of control | [2] 101 % of control | [3] 101 % of control

CCCCCCCCCCCCCCC(F)C(=O)OC (stereo not drawn)
inactive: dose: 100.0 mg/kg/injection, schedule: Q01DX009 (sc), vehicle: olive oil, sesame oil, peanut oil 94 % of control | dose: 100.0 mg/kg/injection, schedule: Q04DX003 (sc), vehicle: olive oil, sesame oil, peanut oil 102 % of control | dose: 200.0 mg/kg/injection, schedule: Q04DX003 (sc), vehicle: olive oil, sesame oil, peanut oil 113 % of control | dose: 400.0 mg/kg/injection, schedule: Q04DX003 (sc), vehicle: olive oil, sesame oil, peanut oil 109 % of control

CN(C)c1ncnc2c1ncn2C1CCCO1 (stereo not drawn)
inactive: dose: 25.0 mg/kg/injection, schedule: Q01DX Z (ip), vehicle: methylcellulose (MC) 97 % of control | dose: 50.0 mg/kg/injection, schedule: Q01DX Z (ip), vehicle: methylcellulose (MC) 92 % of control

CCCCCCCCCCCCCCCCC1CCc2ccccc21 (stereo not drawn)
inactive: [4] 101 % of control | [5] 101 % of control | [6] 98 % of control | [7] 101 % of control

CCOc1c(Br)cc(Br)cc1C=O
inactive: [8] 97 % of control | [9] 103 % of control | [10] 94 % of control | [11] 109 % of control | [12] 110 % of control | [13] 103 % of control

Nc1nc(N)nc(SCCOCCSc2nc(N)nc(N)n2)n1
inactive: [8] 103 % of control | [10] 94 % of control | [12] 92 % of control

c1ccc(COB(OCc2ccccc2)OCc2ccccc2)cc1
inactive: [14] 110 % of control | [15] 105 % of control | [16] 104 % of control | [17] 102 % of control | [18] 96 % of control | [19] 96 % of control

O=C(COc1ccc(Cl)cc1)Nc1ccc(Br)cc1
inactive: dose: 100.0 mg/kg/injection, schedule: Q04DX002 (ip), vehicle: gum acacia 97 % of control | dose: 200.0 mg/kg/injection, schedule: Q04DX002 (ip), vehicle: gum acacia 106 % of control | dose: 400.0 mg/kg/injection, schedule: Q04DX002 (ip), vehicle: gum acacia 95 % of control

CCOC(=O)CC(=O)C(F)(F)F.CCOC(=O)CC(=O)C(F)(F)F.[Ni]
inactive: [1] 96 % of control | [2] 98 % of control | [3] 102 % of control | dose: 40.0 mg/kg/injection, schedule: Q01DX001 (ip), vehicle: saline 106 % of control

O=C(O)c1cc(S(=O)(=O)Cl)ccc1Cl
inactive: dose: 50.0 mg/kg/injection, schedule: Q04DX003 (ip), vehicle: Klucel (hydroxypropylcellulose) (HPC) 105 % of control | dose: 100.0 mg/kg/injection, schedule: Q01DX001 (ip), vehicle: carboxymethylcellulose (CMC) 95 % of control | dose: 100.0 mg/kg/injection, schedule: Q04DX003 (ip), vehicle: Klucel (hydroxypropylcellulose) (HPC) 92 % of control | dose: 200.0 mg/kg/injection, schedule: Q01DX001 (ip), vehicle: carboxymethylcellulose (CMC) 104 % of control

CCCCCCCCCCCCCCCCCCCC[As](=O)(O)CCCCCCCCCCCCCCCCCCCC
inactive: [4] 97 % of control | [5] 101 % of control | [6] 95 % of control | [7] 103 % of control

O=C(CBr)c1ccc(S(=O)(=O)c2ccccc2)cc1
inactive: dose: 5.0 mg/kg/injection, schedule: Q01DX001 (ip), vehicle: carboxymethylcellulose (CMC) 93 % of control | dose: 10.0 mg/kg/injection, schedule: Q01DX001 (ip), vehicle: carboxymethylcellulose (CMC) 93 % of control | dose: 20.0 mg/kg/injection, schedule: Q01DX001 (ip), vehicle: carboxymethylcellulose (CMC) 95 % of control

COc1ccc(OC)c(C(O)C(C)NC(C)(C)C)c1 (stereo not drawn)
inactive: [4] 106 % of control | [5] 97 % of control

CCOc1ccccc1/C=C(\C#N)c1cccc(Cl)c1
inactive: dose: 100.0 mg/kg/injection, schedule: Q01DX009 (ip), vehicle: other 87 % of control | dose: 200.0 mg/kg/injection, schedule: Q01DX009 (ip), vehicle: other 88 % of control

CC(C)N(CSc1ccc([N+](=O)[O-])cc1)CSc1ccc([N+](=O)[O-])cc1
inactive: [5] 100 % of control | [6] 96 % of control | [7] 98 % of control

CCC(O)C(C)(O)C(=O)O (stereo not drawn)
inactive: [20] 96 % of control | [8] 96 % of control | [10] 92 % of control

O=C(CF)NC1C(O)OC(CO)C(O)C1O (stereo not drawn)
inactive: [5] 107 % of control | [6] 112 % of control

CCCCCCCC(O)CCC(=O)NN (stereo not drawn)
inactive: [21] 98 % of control | [20] 102 % of control | [8] 106 % of control

CCOc1ccc(Br)cc1
inactive: dose: 100.0 mg/kg/injection, schedule: Q01DX001 (ip), vehicle: saline with Tween-80 91 % of control | [8] 95 % of control and 105 % of control | dose: 100.0 mg/kg/injection, schedule: Q04DX002 (ip), vehicle: saline with Tween-80 97 % of control and 101 % of control | [9] 105 % of control | dose: 200.0 mg/kg/injection, schedule: Q01DX001 (ip), vehicle: saline with Tween-80 87 % of control | [10] 105 % of control and 92 % of control | dose: 200.0 mg/kg/injection, schedule: Q04DX002 (ip), vehicle: saline with Tween-80 119 % of control and 92 % of control | [11] 94 % of control | dose: 400.0 mg/kg/injection, schedule: Q01DX001 (ip), vehicle: saline with Tween-80 89 % of control | dose: 400.0 mg/kg/injection, schedule: Q04DX002 (ip), vehicle: saline with Tween-80 99 % of control and 91 % of control | [13] 101 % of control

NC(=O)c1ncn(C2CC(CO)C(O)C2O)c1N (stereo not drawn)
inactive: [5] 100 % of control | [6] 110 % of control | [7] 104 % of control

CCCCNN
inactive: dose: 75.0 mg/kg/injection, schedule: Q01DX001 (ip), vehicle: other 96 % of control | dose: 150.0 mg/kg/injection, schedule: Q01DX001 (ip), vehicle: other 113 % of control

c1ccc(C(NC2CC3CCC2C3)c2ccccc2)cc1 (stereo not drawn)
inactive: dose: 50.0 mg/kg/injection, schedule: Q01DX009 (ip), vehicle: saline sonified 101 % of control | dose: 100.0 mg/kg/injection, schedule: Q01DX001 (ip), vehicle: Klucel (hydroxypropylcellulose) (HPC) 109 % of control | dose: 100.0 mg/kg/injection, schedule: Q01DX009 (ip), vehicle: saline sonified 95 % of control | dose: 200.0 mg/kg/injection, schedule: Q01DX001 (ip), vehicle: Klucel (hydroxypropylcellulose) (HPC) 95 % of control | dose: 200.0 mg/kg/injection, schedule: Q01DX009 (ip), vehicle: saline sonified 100 % of control

CCCCOC(=S)SSC(=S)OCCCC
inactive: [21] 97 % of control | [20] 93 % of control | [8] 103 % of control and 104 % of control

CCCCCCCCCCCC[N+](C)(C)Cc1ccccc1 (tested in a mixture with another compound)
inactive: dose: 2.0 mg/kg/injection, schedule: Q01DX015 (ip), vehicle: saline 105 % of control | dose: 4.0 mg/kg/injection, schedule: Q01DX015 (ip), vehicle: saline 94 % of control | dose: 8.0 mg/kg/injection, schedule: Q01DX015 (ip), vehicle: saline 103 % of control

O=C1NC(c2ccccc2)(c2ccccc2)C(=O)N1CCO
inactive: [5] 100 % of control | [14] 96 % of control | [15] 107 % of control | [6] 92 % of control | [16] 96 % of control | [17] 104 % of control | [7] 102 % of control | [18] 90 % of control | [19] 98 % of control
